From patent US20250130239A1, “PROTEIN DEGRADER” (University of Dundee, priority 2021, published 2025)
Where two headings read alike, the source gives them in different places.

How the values were obtained:
BromoTag-Brd2 = molecular target: T1, BromoTag-Brd2 (Homo sapiens, UniProt O60885+P40337, L387A); test: Dose-response degradation assay (western blot, 6 h) in heterozygous BromoTag-Brd2 HEK293 cells; assay type: cell-based; conditions: for pDC50: second-generation B&H-PROTACs (diastereomeric mixtures), mean (±S.E) of three experiments; for hook effect: at the higher concentrations used, 1-10 μM
T1 construct: comprising residues 368-440 of human Brd4; Brd2 (endogenous protein, fusion partner in the same polypeptide); eGFP-P2A (upstream marker in the knock-in cassette) (N, cleaved yes); expressed in transfected cells; host or cells: HEK293, heterozygous CRISPR knock-in at the endogenous BRD2 locus
T1 sequence (P40337 whole entry, other chains not shown, the tested form may be a part): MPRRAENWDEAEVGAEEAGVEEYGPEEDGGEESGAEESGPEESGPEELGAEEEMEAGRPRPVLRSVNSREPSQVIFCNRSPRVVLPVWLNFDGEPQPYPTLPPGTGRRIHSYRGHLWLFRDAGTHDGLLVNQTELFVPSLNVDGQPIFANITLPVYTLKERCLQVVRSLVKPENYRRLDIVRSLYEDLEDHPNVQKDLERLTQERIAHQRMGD
Method: Dose-response Degradation Assays. All dose-response degradation assays were performed on the genotype verified heterozygous BromoTag-Brd2 HEK293 cell line. Heterozygous BromoTag-Brd2 HEK293 cells were plated at a density of 5×10^5 cells per well of a six healthy plate a day before initiation of the titration experiment. PROTAC compounds were dissolved in DMSO at a concentration of 10 mM, from these stock concentrations, PROTAC compounds were diluted to appropriate concentrations using DMSO in the range of 10 μM-1 nM. […] Control compounds such as MZ1, cis-MZ1 were similarly dissolved in DMSO to the appropriate concentration. […] Cells were washed twice with PBS before being harvested.
Western Blotting. […] The membranes were blocked for 1 h prior to incubation with the primary antibodies using 5% Milk TBST. […] Following overnight incubation with the primary antibodies at 4° C., the membranes were incubated with secondary antibodies (Anti-rabbit, Abcam AB216773, 1:5000 or anti-mouse, Abcam AB216774, 1:5000) and hFAB™ Rhodamine Anti-Tubulin Antibody (Biorad, 12004165, 1:10000) for one h and then imaged with a Bio-Rad imager (LI-COR Biosciences). All western blots were analysed for band intensities using Image Lab from Bio-Rad (LI-COR, Biosciences). The data extracted from these blots were then plotted and analysed using Prism (v. 8.2.0, GraphPad).

[1] = test system: untagged Brd2 and endogenous Brd3 and Brd4; test: Off-target degradation of endogenous BET proteins (western blot) in BromoTag-Brd2 HEK293 cells; assay type: cell-based, human; conditions: 1 nM to 10 μM; 6 h
Method: Dose-response Degradation Assays. All dose-response degradation assays were performed on the genotype verified heterozygous BromoTag-Brd2 HEK293 cell line. Heterozygous BromoTag-Brd2 HEK293 cells were plated at a density of 5×10^5 cells per well of a six healthy plate a day before initiation of the titration experiment. PROTAC compounds were dissolved in DMSO at a concentration of 10 mM, from these stock concentrations, PROTAC compounds were diluted to appropriate concentrations using DMSO in the range of 10 μM-1 nM. The compounds were then added to a 2 mL of DMEM (Invitrogen, Carlsebad, CA, USA) supplemented with 10% (v/v) Fetal bovine serum (FBS) (Thermo Fisher, Waltham, MA, USA) and 1% (v/v) penicillin/streptomycin (pen/strep) (#15140122, Thermo Fisher, Waltham, MA, USA) and added to the cells at initiation of the experiment. Control compounds such as MZ1, cis-MZ1 were similarly dissolved in DMSO to the appropriate concentration. All titration experiment were performed for a total of 6 hours prior to being harvested and were kept at 37° C., 5% CO2, and 95% humidity once treatment was applied until right before harvesting. Cells were washed twice with PBS before being harvested.
Western Blotting. […] Total protein quantity was determined using the BCA protein assay (#23225, Pierce, Rockford, Illinois). Protein concentration was determined using the BCA assay (ThermoFisher Scientific, 23225). […] All western blots were analysed for band intensities using Image Lab from Bio-Rad (LI-COR, Biosciences). The data extracted from these blots were then plotted and analysed using Prism (v. 8.2.0, GraphPad).
Development of a Knock-in Cell Line with BromoTag fused to endogenous Brd2 using CRISPR. […] To this end, the endogenous BET family protein Brd2 was chosen as a model target, due to the availability of well-established antibody for Brd2 detection, and expression of a single protein isoform as well detected band in the western blot (Filippakopoulos, P.; Knapp, S., Nat Rev Drug Discov. 2014, 13 (5), 337-356). […]

[2] = 6 h, range over the two antibodies
[3] = Ab: Brd2, second-generation B&H-PROTACs, 6 h
[4] = Ab: Brd4^BD2 L387A, second-generation B&H-PROTACs, 6 h

| SMILES | DC50 (BromoTag-Brd2; [2]) [nM] | pDC50 (BromoTag-Brd2; Ab: Brd2, 6 h) | Dmax (%) (BromoTag-Brd2; [3]) | pDC50 (BromoTag-Brd2; Ab: Brd4^BD2 L387A, 6 h) | Dmax (%) (BromoTag-Brd2; [4]) | Dmax (BromoTag-Brd2; HEK293, Ab: Brd4^BD2 L387A, second-generation B&H-PROTACs, 6 h) [%] | Dmax (BromoTag-Brd2; HEK293, read-out: Dmax, BromoTag-Brd2, 6 h) [%] | hook effect (BromoTag-Brd2; 6 h) | off-target degradation of untagged Brd2 or the other endogenous BET proteins [1] | DC50 (BromoTag-Brd2; 6 h) [nM] | Dmax, BromoTag-Brd2 (BromoTag-Brd2; 6 h) [%] |
| --- | --- | --- | --- | --- | --- | --- | --- | --- | --- | --- | --- |
| Cc1ncsc1-c1ccc([C@H](C)NC(=O)[C@@H]2C[C@@H](O)CN2C(=O)[C@@H](NC(=O)COCCCOCCNC(=O)[C@H](C)[C@@H]2N=C(c3ccc(Cl)cc3)c3c(sc(C)c3C)-n3c(C)nnc32)C(C)(C)C)cc1 (relative stereo) [ME-ARV-771 (20), (2S,4R)-1-((2S,15R*)-(tert-butyl)-15-((S*)-4-(4-chlorophenyl)-2,3,9-trimethyl-6H-thieno[3,2-f][1,2,4]triazolo[4,3-a][1,4]diazepin-6-yl)-4,14-dioxo-6,10-dioxa-3,13-diazahexadecanoyl)-4-hydroxy-N—((S)-1-(4-(4-methylthiazol-5-yl)phenyl)ethyl)pyrrolidine-2-carboxamide] | 320 to 400 | 6.4 ± 0.6 | 60 | 6.5 ± 0.4 | 70 |  |  |  |  |  |  |
| CC[C@@H](C(=O)OCCOCCOCCOCC(=O)N[C@H](C(=O)N1C[C@H](O)C[C@H]1C(=O)NCc1ccc(-c2scnc2C)cc1)C(C)(C)C)[C@@H]1N=C(c2ccc(Cl)cc2)c2c(sc(C)c2C)-n2c(C)nnc21 (relative stereo) [ET-OMZ1 (23), (S)-13-((2S,4R)-4-hydroxy-2-((4-(4-methylthiazol-5-yl)benzyl)carbamoyl)pyrrolidine-1-carbonyl)-14,14-dimethyl-11-oxo-3,6,9-trioxa-12-azapentadecyl (R*)-2-((S*)-4-(4-chlorophenyl)-2,3,9-trimethyl-6H-thieno[3,2-f][1,2,4]triazolo[4,3-a][1,4]diazepin-6-yl)butanoate] | 13 to 80 | 7.9 ± 0.2 |  | 7.1 |  | 90 | > 75 | strong onset of the hook effect | no observable off-target degradation |  |  |
| CC[C@@H](C(=O)NCCOCCOCCOCC(=O)N[C@H](C(=O)N1C[C@H](O)C[C@H]1C(=O)NCc1ccc(-c2scnc2C)cc1)C(C)(C)C)[C@@H]1N=C(c2ccc(Cl)cc2)c2c(sc(C)c2C)-n2c(C)nnc21 (relative stereo) [ET-MZ1 (19), (2S,4R)-1-((2S,17R*)-(tert-butyl)-17-((S*)-4-(4-chlorophenyl)-2,3,9-trimethyl-6H-thieno[3,2-f][1,2,4]triazolo[4,3-a][1,4]diazepin-6-yl)-4,16-dioxo-6,9,12-trioxa-3,15-diazanonadecanoyl)-4-hydroxy-N-(4-(4-methylthiazol-5-yl)benzyl)pyrrolidine-2-carboxamide] |  |  |  |  |  |  |  |  | no observable off-target degradation |  |  |
| CC[C@@H](C(=O)NCCOCCCOCC(=O)N[C@H](C(=O)N1C[C@H](O)C[C@H]1C(=O)N[C@@H](C)c1ccc(-c2scnc2C)cc1)C(C)(C)C)[C@@H]1N=C(c2ccc(Cl)cc2)c2c(sc(C)c2C)-n2c(C)nnc21 (relative stereo) [ET-ARV-771 (21), (2S,4R)-1-((2S,15R*)-(tert-butyl)-15-((S*)-4-(4-chlorophenyl)-2,3,9-trimethyl-6H-thieno[3,2-f][1,2,4]triazolo[4,3-a][1,4]diazepin-6-yl)-4,14-dioxo-6,10-dioxa-3,13-diazaheptadecanoyl)-4-hydroxy-N—((S)-1-(4-(4-methylthiazol-5-yl)phenyl)ethyl)pyrrolidine-2-carboxamide] |  | 5.7 ± 1.8 | 51 | 6.1 ± 0.3 | 69 |  |  | strong hook effect |  | ~1000 | < 70 |
